Measured values reported in US12371428B2 (Exelixis, Inc., priority 2019, dated 2025).
pIC50: −log10 of the molar value. Where a name gives a salt, the structure may show the parent alone.

Legend:
[1] = target: Met (phospho-Met, HGF-stimulated PC-3 prostate cancer cells) (Homo sapiens (Human), UniProt P08581); assay: Met autophosphorylation ELISA in PC-3 cells (Example F); type: cell-based; settings: cellular activity; Met autophosphorylation ELISA in PC-3 cells; read-out: c-Met IC50
How it was run: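 PC-3 cells, serum-starved 3 h, were treated with compounds (8-point dose curve, 0.3% DMSO final) for 1 h, then stimulated with 100 ng/mL recombinant human HGF for 10 min. Lysate phospho-Met (panTyr) was quantified by sandwich ELISA; IC50 from 4-parameter logistic fit.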

[2] = target: Human MER (residues 528-999) (Homo sapiens (Human), UniProt Q12866); assay: Human Mer kinase assay, HTRF KinEase (Example C-2); type: biochemical; settings: protocol of Example C-2 (other compounds)
Sequence of Human MER (residues 528-999) (Q12866 528-999): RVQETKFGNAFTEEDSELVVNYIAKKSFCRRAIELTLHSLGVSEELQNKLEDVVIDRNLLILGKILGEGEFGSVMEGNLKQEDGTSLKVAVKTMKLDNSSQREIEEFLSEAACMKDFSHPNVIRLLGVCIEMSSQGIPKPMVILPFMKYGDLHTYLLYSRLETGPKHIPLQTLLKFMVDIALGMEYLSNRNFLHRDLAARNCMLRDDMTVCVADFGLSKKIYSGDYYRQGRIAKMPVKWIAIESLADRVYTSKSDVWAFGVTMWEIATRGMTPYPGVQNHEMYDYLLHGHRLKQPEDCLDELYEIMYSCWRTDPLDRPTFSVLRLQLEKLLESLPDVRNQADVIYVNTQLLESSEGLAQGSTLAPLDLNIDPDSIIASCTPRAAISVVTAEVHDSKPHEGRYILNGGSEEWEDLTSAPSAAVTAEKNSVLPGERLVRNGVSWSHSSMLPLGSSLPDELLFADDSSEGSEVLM
How it was run: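 Recombinant MER 528-999 (1 ng/well) in buffer with 5 mM MgCl2 and 1 mM DTT was reacted with biotinylated peptide and ATP at Km (40 μM) for 60 min at room temperature. EDTA stop with SA-XL665 and Eu3+ TK antibody, then 665/620 nm HTRF read; IC50 from 4-parameter fit.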

Sequence of Met (phospho-Met, HGF-stimulated PC-3 prostate cancer cells) (P08581 25-1390): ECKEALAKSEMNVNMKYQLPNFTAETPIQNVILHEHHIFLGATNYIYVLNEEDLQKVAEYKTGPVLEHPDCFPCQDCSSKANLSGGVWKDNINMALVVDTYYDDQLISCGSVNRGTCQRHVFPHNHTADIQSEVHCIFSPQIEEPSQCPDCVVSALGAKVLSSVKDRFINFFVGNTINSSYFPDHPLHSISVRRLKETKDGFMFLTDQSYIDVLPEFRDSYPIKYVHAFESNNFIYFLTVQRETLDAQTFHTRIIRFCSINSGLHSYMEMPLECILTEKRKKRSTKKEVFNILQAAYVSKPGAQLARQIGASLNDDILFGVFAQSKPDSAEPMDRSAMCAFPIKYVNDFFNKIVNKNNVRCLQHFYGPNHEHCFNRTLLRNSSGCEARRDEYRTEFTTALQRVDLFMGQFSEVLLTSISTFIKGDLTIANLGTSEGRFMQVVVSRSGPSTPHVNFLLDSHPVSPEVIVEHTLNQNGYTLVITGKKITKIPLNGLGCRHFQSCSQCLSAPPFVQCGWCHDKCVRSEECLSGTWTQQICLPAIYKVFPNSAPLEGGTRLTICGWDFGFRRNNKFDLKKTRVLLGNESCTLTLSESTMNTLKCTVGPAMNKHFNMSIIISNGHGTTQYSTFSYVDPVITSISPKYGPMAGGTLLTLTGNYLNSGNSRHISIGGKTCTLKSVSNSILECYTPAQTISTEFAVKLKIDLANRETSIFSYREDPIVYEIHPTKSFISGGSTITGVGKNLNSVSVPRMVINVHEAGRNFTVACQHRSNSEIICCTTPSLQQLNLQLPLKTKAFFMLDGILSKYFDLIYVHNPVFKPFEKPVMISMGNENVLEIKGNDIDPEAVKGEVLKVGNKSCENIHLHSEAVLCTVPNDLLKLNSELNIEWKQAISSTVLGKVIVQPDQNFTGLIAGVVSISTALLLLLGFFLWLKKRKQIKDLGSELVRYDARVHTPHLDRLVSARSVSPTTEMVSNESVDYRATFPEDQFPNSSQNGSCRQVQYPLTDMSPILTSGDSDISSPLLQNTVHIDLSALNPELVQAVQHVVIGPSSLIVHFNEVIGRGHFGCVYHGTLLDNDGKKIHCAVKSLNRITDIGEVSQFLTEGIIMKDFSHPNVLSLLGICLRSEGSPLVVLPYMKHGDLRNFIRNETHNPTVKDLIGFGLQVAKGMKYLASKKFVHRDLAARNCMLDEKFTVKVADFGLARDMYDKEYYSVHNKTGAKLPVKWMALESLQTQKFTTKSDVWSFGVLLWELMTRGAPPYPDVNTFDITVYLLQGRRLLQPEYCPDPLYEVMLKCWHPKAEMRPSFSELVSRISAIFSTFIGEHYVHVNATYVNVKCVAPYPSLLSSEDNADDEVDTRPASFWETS

Structure (SMILES) | pIC50 [1] | pIC50 [2]
COc1cc2nccc(Oc3ccc(NC(=O)c4cn(C)c(CO)c(-c5ccc(F)cc5)c4=O)cc3)c2nc1OC [Compound 221, N-[4-[(6,7-Dimethoxy-1,5-naphthyridin-4-yl)oxy]phenyl]-5-(4-fluorophenyl)-6-(hydroxymethyl)-1-methyl-4-oxopyridine-3-carboxamide] | > 7.00 | > 7.00
COc1ccc2nccc(Oc3ccc(NC(=O)c4c(C)nc(C)n(-c5ccc(F)cc5)c4=O)cc3F)c2n1 [Compound 233, N-[3-Fluoro-4-[(6-methoxy-1,5-naphthyridin-4-yl)oxy]phenyl]-1-(4-fluorophenyl)-2,4-dimethyl-6-oxopyrimidine-5-carboxamide] | 6.52 to 7.00 | > 7.00
COCc1nc(C)c(-c2ccc(F)cc2)c(O)c1C(=O)Nc1ccc(Oc2ccnc3cc(OC)cnc23)c(F)c1 [Compound 186, N-[3-Fluoro-4-[(7-methoxy-1,5-naphthyridin-4-yl)oxy]phenyl]-5-(4-fluorophenyl)-4-hydroxy-2-(methoxymethyl)-6-methylpyridine-3-carboxamide] | > 7.00 | > 7.00
CCn1cc(-c2ccc(F)cc2)c(=O)c(C(=O)Nc2ccc(Oc3ccnc4cc(OC)cnc34)c(F)c2)c1C [Compound 240, 1-Ethyl-N-[3-fluoro-4-[(7-methoxy-1,5-naphthyridin-4-yl)oxy]phenyl]-5-(4-fluorophenyl)-2-methyl-4-oxopyridine-3-carboxamide] | > 7.00 | > 7.00
COc1cnc2c(Oc3ccc(NC(=O)c4c(C)nc(C)n(-c5ccc(F)cc5)c4=O)cc3)ccnc2c1 [Compound 258, 1-(4-Fluorophenyl)-N-[4-[(7-methoxy-1,5-naphthyridin-4-yl)oxy]phenyl]-2,4-dimethyl-6-oxopyrimidine-5-carboxamide] | > 7.00 | > 7.00
COc1ccc2nccc(Oc3ccc(NC(=O)c4cn(C)c(C)c(-c5ccc(F)cc5C)c4=O)cc3F)c2n1 [Compound 183, N-[3-Fluoro-4-[(6-methoxy-1,5-naphthyridin-4-yl)oxy]phenyl]-5-(4-fluoro-2-methylphenyl)-1,6-dimethyl-4-oxopyridine-3-carboxamide] | 6.52 to 7.00 | > 7.00
CCc1nc(C)c(-c2ccc(F)cc2)c(O)c1C(=O)Nc1ccc(Oc2ccnc3cc(OC)c(OC)nc23)c(F)c1 [Compound 179, N-[4-[(6,7-Dimethoxy-1,5-naphthyridin-4-yl)oxy]-3-fluorophenyl]-2-ethyl-5-(4-fluorophenyl)-4-hydroxy-6-methylpyridine-3-carboxamide] | > 7.00 | > 7.00
COc1cnc2c(Oc3ccc(NC(=O)c4cnc(CO)c(-c5ccc(F)cc5)c4O)cc3)ccnc2c1 [Compound 218, 5-(4-Fluorophenyl)-4-hydroxy-6-(hydroxymethyl)-N-[4-[(7-methoxy-1,5-naphthyridin-4-yl)oxy]phenyl]pyridine-3-carboxamide] | > 7.00 | > 7.00
COc1cnc2c(Oc3ccc(NC(=O)c4nn(C)c(C)c(-c5ccc(F)cc5)c4=O)cc3F)ccnc2c1 [Compound 250, N-[3-Fluoro-4-[(7-methoxy-1,5-naphthyridin-4-yl)oxy]phenyl]-5-(4-fluorophenyl)-1,6-dimethyl-4-oxopyridazine-3-carboxamide] | > 7.00 | > 7.00
COc1ccc2nccc(Oc3ccc(NC(=O)c4cnc(CO)c(-c5ccc(F)cc5)c4O)cc3F)c2n1 [Compound 231, N-[3-Fluoro-4-[(6-methoxy-1,5-naphthyridin-4-yl)oxy]phenyl]-5-(4-fluorophenyl)-4-hydroxy-6-(hydroxymethyl)pyridine-3-carboxamide] | > 7.00 | > 7.00
COc1ccc2nccc(Oc3ccc(NC(=O)c4cn(C)c(CO)c(-c5ccc(F)cc5)c4=O)cc3F)c2n1 [Compound 224, N-[3-Fluoro-4-[(6-methoxy-1,5-naphthyridin-4-yl)oxy]phenyl]-5-(4-fluorophenyl)-6-(hydroxymethyl)-1-methyl-4-oxopyridine-3-carboxamide] | 6.52 to 7.00 | > 7.00
COc1cnc2c(Oc3ccc(NC(=O)c4n[nH]c(C)c(-c5ccc(F)cc5C)c4=O)cc3F)ccnc2c1 [Compound 249A, N-[3-Fluoro-4-[(7-methoxy-1,5-naphthyridin-4-yl)oxy]phenyl]-5-(4-fluoro-2-methylphenyl)-6-methyl-4-oxo-1H-pyridazine-3-carboxamide] | > 7.00 | > 7.00
COc1cc2nccc(Oc3ccc(NC(=O)c4ccc(C)n(-c5ccc(F)cc5)c4=O)cc3)c2nc1OC [Compound 229, N-[4-[(6,7-Dimethoxy-1,5-naphthyridin-4-yl)oxy]phenyl]-1-(4-fluorophenyl)-6-methyl-2-oxopyridine-3-carboxamide] | > 7.00 | > 7.00
COc1cnc2c(Oc3ccc(NC(=O)c4c(C)nc(C)n(-c5ccc(F)cc5)c4=O)cc3F)ccnc2c1 [Compound 257, N-[3-Fluoro-4-[(7-methoxy-1,5-naphthyridin-4-yl)oxy]phenyl]-1-(4-fluorophenyl)-2,4-dimethyl-6-oxopyrimidine-5-carboxamide] | > 7.00 | > 7.00
COc1cc2nccc(Oc3ccc(NC(=O)c4n[nH]c(C)c(-c5ccc(F)cc5C)c4=O)cc3)c2nc1OC [Compound 247, N-[4-[(6,7-Dimethoxy-1,5-naphthyridin-4-yl)oxy]phenyl]-5-(4-fluoro-2-methylphenyl)-6-methyl-4-oxo-1H-pyridazine-3-carboxamide] | > 7.00 | > 7.00
CCc1nc(C)c(-c2ccc(F)cc2C)c(O)c1C(=O)Nc1ccc(Oc2ccnc3cc(OC)cnc23)cc1 [Compound 205, 2-Ethyl-5-(4-fluoro-2-methylphenyl)-4-hydroxy-N-[4-[(7-methoxy-1,5-naphthyridin-4-yl)oxy]phenyl]-6-methylpyridine-3-carboxamide] | > 7.00 | > 7.00
COCc1nc(C)c(-c2ccc(F)cc2C)c(O)c1C(=O)Nc1ccc(Oc2ccnc3cc(OC)c(OC)nc23)cc1 [Compound 192, N-[4-[(6,7-Dimethoxy-1,5-naphthyridin-4-yl)oxy]phenyl]-5-(4-fluoro-2-methylphenyl)-4-hydroxy-2-(methoxymethyl)-6-methylpyridine-3-carboxamide] | > 7.00 | > 7.00
COc1cc2nccc(Oc3ccc(NC(=O)c4cn(C)c(C)c(-c5ccccc5)c4=O)cc3F)c2nc1OC [Compound 36, N-[4-[(6,7-Dimethoxy-1,5-naphthyridin-4-yl)oxy]-3-fluorophenyl]-1,6-dimethyl-4-oxo-5-phenylpyridine-3-carboxamide hydrochloride] | > 7.00 | > 7.00
COCCOc1nc2c(Oc3ccc(NC(=O)c4cn(C)c(C)c(-c5ccc(F)cc5C)c4=O)cc3F)ccnc2cc1OC [Compound 200, N-[3-Fluoro-4-[[7-methoxy-6-(2-methoxyethoxy)-1,5-naphthyridin-4-yl]oxy]phenyl]-5-(4-fluoro-2-methylphenyl)-1,6-dimethyl-4-oxopyridine-3-carboxamide] | > 7.00 | > 7.00
COc1cnc2c(Oc3ccc(NC(=O)c4n[nH]c(C)c(-c5ccc(F)cc5C)c4=O)cc3)ccnc2c1 [Compound 248, 5-(4-Fluoro-2-methylphenyl)-N-[4-[(7-methoxy-1,5-naphthyridin-4-yl)oxy]phenyl]-6-methyl-4-oxo-1H-pyridazine-3-carboxamide] | > 7.00 | > 7.00
